Bridge positions count the residues as written; N and C are the ends. Square brackets hold non-standard residues; d marks the D form. Peptide text beside a SMILES is read from it.
Experiments:
[1] = test system: H1N1 A1/Malaysia/302/1954; conditions: A1/Malaysia/302/1954, 48 h, 500 μM
H3N8 A/Miami/2/63 = conditions: A/Miami/2/63, 48 h, 500 μM
H9N2 A/Iran/16/2000 = conditions: 48 h, 500 μM

Row | Compound | % inhibition H1N1 [1] | % inhibition H3N8 (H3N8 A/Miami/2/63) | % inhibition H9N2 (H9N2 A/Iran/16/2000)
1 | CC[C@@H](C)[C@H]1NC(=O)[C@@H](Cc2ccccc2)NC(=O)[C@@H](CCCNC(=N)N)NC(=O)[C@@H](CO)NC(=O)[C@@H](CCC(=O)O)NC(=O)[C@@H]([C@H](C)O)NC(=O)[C@H](NC(=O)[C@@H](CCCCN)NC(=O)[C@@H](CCCCN)NC(=O)[C@@H](CCCNC(=N)N)NC(=O)[C@H](N)CCCNC(=N)N)CSSC[C@H](C(=O)O)NC(=O)[C@@H](CC(N)=O)NC1=O [PSP II A4, H-rrkkctesrfinc-OH] (H-[dR][dR][dK][dK][dC][dT][dE][dS][dR][dF][dI][dN][dC]-OH; disulfide 5-13) | 36.2% | 74.1% | 60%
2 | CC[C@@H](C)[C@H]1NC(=O)[C@@H](Cc2ccccc2)NC(=O)[C@@H](CCCNC(=N)N)NC(=O)[C@@H](CO)NC(=O)[C@@H](CCCCN)NC(=O)[C@@H]([C@H](C)O)NC(=O)[C@H](NC(=O)[C@@H](CCCCN)NC(=O)[C@@H](CCCCN)NC(=O)[C@@H](CCCNC(=N)N)NC(=O)[C@H](N)CCCNC(=N)N)CSSC[C@H](C(=O)O)NC(=O)[C@@H](CC(N)=O)NC1=O [PSP II A9, H-rrkkctksrfinc-OH] (H-[dR][dR][dK][dK][dC][dT][dK][dS][dR][dF][dI][dN][dC]-OH; disulfide 5-13) | 81% | 77.8% | 50%
3 | C[C@H](O)[C@H]1NC(=O)[C@H](N)CSSC[C@H](C(=O)O)NC(=O)[C@@H](CC(N)=O)NC(=O)[C@@H](CC(N)=O)NC(=O)[C@@H](Cc2ccccc2)NC(=O)[C@@H](CCCNC(=N)N)NC(=O)[C@@H](CO)NC(=O)[C@@H](CCCCN)NC1=O [PSP 12, H-ctksrfnnc-OH] (H-[dC][dT][dK][dS][dR][dF][dN][dN][dC]-OH; disulfide 1-9) | 32.7% | 70.1% | 27.3%
4 | CC[C@@H](C)[C@H]1NC(=O)[C@@H](Cc2ccccc2)NC(=O)[C@@H](CCCNC(=N)N)NC(=O)[C@@H](CO)NC(=O)[C@@H]([C@H](C)CC)NC(=O)[C@@H]([C@H](C)O)NC(=O)[C@H](NC(=O)[C@@H](CCCCN)NC(=O)[C@@H](CCCCN)NC(=O)[C@@H](CCCNC(=N)N)NC(=O)[C@H](N)CCCNC(=N)N)CSSC[C@H](C(=O)O)NC(=O)[C@@H](CC(N)=O)NC1=O [PSP II A8, H-rrkkctisrfinc-OH] (H-[dR][dR][dK][dK][dC][dT][dI][dS][dR][dF][dI][dN][dC]-OH; disulfide 5-13) | 75% | 77.8% | 20%
5 | CC[C@@H](C)[C@H]1NC(=O)[C@@H](Cc2ccccc2)NC(=O)[C@@H](CCCNC(=N)N)NC(=O)[C@@H](CO)NC(=O)[C@@H]([C@H](C)O)NC(=O)[C@@H]([C@H](C)O)NC(=O)[C@H](NC(=O)[C@@H](CCCCN)NC(=O)[C@@H](CCCCN)NC(=O)[C@@H](CCCNC(=N)N)NC(=O)[C@H](N)CCCNC(=N)N)CSSC[C@H](C(=O)O)NC(=O)[C@@H](CC(N)=O)NC1=O [PSP II A17, H-rrkkcttsrfinc-OH] (H-[dR][dR][dK][dK][dC][dT][dT][dS][dR][dF][dI][dN][dC]-OH; disulfide 5-13) | 67.3% | 70.6% | 80%
6 | C[C@H](O)[C@H]1NC(=O)[C@H](N)CSSC[C@H](C(=O)O)NC(=O)[C@@H](CC(N)=O)NC(=O)[C@@H](CO)NC(=O)[C@@H](Cc2ccccc2)NC(=O)[C@@H](CCCNC(=N)N)NC(=O)[C@@H](CO)NC(=O)[C@@H](CCCCN)NC1=O [PSP 16, H-ctksrfsnc-OH] (H-[dC][dT][dK][dS][dR][dF][dS][dN][dC]-OH; disulfide 1-9) | 13.5% | 71.1% | 45.5%
7 | CC[C@@H](C)[C@H]1NC(=O)[C@@H](Cc2ccccc2)NC(=O)[C@@H](CCCNC(=N)N)NC(=O)[C@@H](CO)NC(=O)[C@@H](Cc2c[nH]c3ccccc23)NC(=O)[C@@H]([C@H](C)O)NC(=O)[C@H](NC(=O)[C@@H](CCCCN)NC(=O)[C@@H](CCCCN)NC(=O)[C@@H](CCCNC(=N)N)NC(=O)[C@H](N)CCCNC(=N)N)CSSC[C@H](C(=O)O)NC(=O)[C@@H](CC(N)=O)NC1=O [PSP II A19, H-rrkkctwsrfinc-OH] (H-[dR][dR][dK][dK][dC][dT][dW][dS][dR][dF][dI][dN][dC]-OH; disulfide 5-13) | 88.4% | 82.4% | 100%
8 | CC[C@@H](C)[C@H]1NC(=O)[C@@H](Cc2ccccc2)NC(=O)[C@@H](CCCNC(=N)N)NC(=O)[C@@H](CO)NC(=O)[C@H]2CCCN2C(=O)[C@@H]([C@H](C)O)NC(=O)[C@H](NC(=O)[C@@H](CCCCN)NC(=O)[C@@H](CCCCN)NC(=O)[C@@H](CCCNC(=N)N)NC(=O)[C@H](N)CCCNC(=N)N)CSSC[C@H](C(=O)O)NC(=O)[C@@H](CC(N)=O)NC1=O [PSP II A13, H-rrkkctpsrfinc-OH] (H-[dR][dR][dK][dK][dC][dT][dP][dS][dR][dF][dI][dN][dC]-OH; disulfide 5-13) | 86.5% | 97% | 70%
9 | CC[C@@H](C)[C@H]1NC(=O)[C@@H](Cc2ccccc2)NC(=O)[C@@H](CCCNC(=N)N)NC(=O)[C@@H](CO)NC(=O)[C@@H](Cc2c[nH]cn2)NC(=O)[C@@H]([C@H](C)O)NC(=O)[C@H](NC(=O)[C@@H](CCCCN)NC(=O)[C@@H](CCCCN)NC(=O)[C@@H](CCCNC(=N)N)NC(=O)[C@H](N)CCCNC(=N)N)CSSC[C@H](C(=O)O)NC(=O)[C@@H](CC(N)=O)NC1=O [PSP II A7, H-rrkkcthsrfinc-OH] (H-[dR][dR][dK][dK][dC][dT][dH][dS][dR][dF][dI][dN][dC]-OH; disulfide 5-13) | 71% | 81.5% | 50%
10 | CC[C@@H](C)[C@H]1NC(=O)[C@@H](Cc2ccccc2)NC(=O)[C@@H](CCCNC(=N)N)NC(=O)[C@@H](CO)NC(=O)[C@@H](Cc2ccccc2)NC(=O)[C@@H]([C@H](C)O)NC(=O)[C@H](NC(=O)[C@@H](CCCCN)NC(=O)[C@@H](CCCCN)NC(=O)[C@@H](CCCNC(=N)N)NC(=O)[C@H](N)CCCNC(=N)N)CSSC[C@H](C(=O)O)NC(=O)[C@@H](CC(N)=O)NC1=O [PSP II A5, H-rrkkctfsrfinc-OH] (H-[dR][dR][dK][dK][dC][dT][dF][dS][dR][dF][dI][dN][dC]-OH; disulfide 5-13) | 82.8% | 100% | 50%
11 | CC[C@@H](C)[C@H]1NC(=O)[C@@H](Cc2ccccc2)NC(=O)[C@@H](CCCNC(=N)N)NC(=O)[C@@H](CO)NC(=O)CNC(=O)[C@@H]([C@H](C)O)NC(=O)[C@H](NC(=O)[C@@H](CCCCN)NC(=O)[C@@H](CCCCN)NC(=O)[C@@H](CCCNC(=N)N)NC(=O)[C@H](N)CCCNC(=N)N)CSSC[C@H](C(=O)O)NC(=O)[C@@H](CC(N)=O)NC1=O [PSP II A6, H-rrkkctGsrfinc-OH] (H-[dR][dR][dK][dK][dC][dT]G[dS][dR][dF][dI][dN][dC]-OH; disulfide 5-13) | 1.7% | 44.4% | 20%
12 | C[C@H](O)[C@H]1NC(=O)[C@H](N)CSSC[C@H](C(=O)O)NC(=O)[C@@H](CC(N)=O)NC(=O)[C@@H](CCC(N)=O)NC(=O)[C@@H](Cc2ccccc2)NC(=O)[C@@H](CCCNC(=N)N)NC(=O)[C@@H](CO)NC(=O)[C@@H](CCCCN)NC1=O [PSP 14, H-ctksrfqnc-OH] (H-[dC][dT][dK][dS][dR][dF][dQ][dN][dC]-OH; disulfide 1-9) | 23.1% | 62.9% | 18.2%
13 | CC[C@@H](C)[C@H]1NC(=O)[C@@H](Cc2ccccc2)NC(=O)[C@@H](CCCNC(=N)N)NC(=O)[C@@H](CO)NC(=O)[C@@H](CC(=O)O)NC(=O)[C@@H]([C@H](C)O)NC(=O)[C@H](NC(=O)[C@@H](CCCCN)NC(=O)[C@@H](CCCCN)NC(=O)[C@@H](CCCNC(=N)N)NC(=O)[C@H](N)CCCNC(=N)N)CSSC[C@H](C(=O)O)NC(=O)[C@@H](CC(N)=O)NC1=O [PSP II A3, H-rrkkctdsrfinc-OH] (H-[dR][dR][dK][dK][dC][dT][dD][dS][dR][dF][dI][dN][dC]-OH; disulfide 5-13) | 44.8% | 85.2% | 40%
14 | C[C@H](O)[C@H]1NC(=O)[C@H](N)CSSC[C@H](C(=O)O)NC(=O)[C@@H](CC(N)=O)NC(=O)[C@@H]([C@H](C)O)NC(=O)[C@@H](Cc2ccccc2)NC(=O)[C@@H](CCCNC(=N)N)NC(=O)[C@@H](CO)NC(=O)[C@@H](CCCCN)NC1=O [PSP 17, H-ctksrftnc-OH] (H-[dC][dT][dK][dS][dR][dF][dT][dN][dC]-OH; disulfide 1-9) | 30.8% | 74.2% | 9.1%
15 | C[C@H](O)[C@H]1NC(=O)[C@H](N)CSSC[C@H](C(=O)O)NC(=O)[C@@H](CC(N)=O)NC(=O)[C@@H](CCCCN)NC(=O)[C@@H](Cc2ccccc2)NC(=O)[C@@H](CCCNC(=N)N)NC(=O)[C@@H](CO)NC(=O)[C@@H](CCCCN)NC1=O [PSP 9, H-ctksrfknc-OH] (H-[dC][dT][dK][dS][dR][dF][dK][dN][dC]-OH; disulfide 1-9) | 17.6% | 62.9% | 31.8%
16 | CC[C@@H](C)[C@H]1NC(=O)[C@@H](Cc2ccccc2)NC(=O)[C@@H](CCCNC(=N)N)NC(=O)[C@@H](CO)NC(=O)[C@@H](CC(C)C)NC(=O)[C@@H]([C@H](C)O)NC(=O)[C@H](NC(=O)[C@@H](CCCCN)NC(=O)[C@@H](CCCCN)NC(=O)[C@@H](CCCNC(=N)N)NC(=O)[C@H](N)CCCNC(=N)N)CSSC[C@H](C(=O)O)NC(=O)[C@@H](CC(N)=O)NC1=O [PSP II A10, H-rrkkctisrfinc-OH] (H-[dR][dR][dK][dK][dC][dT][dL][dS][dR][dF][dI][dN][dC]-OH; disulfide 5-13) | 63.5% | 88.9% | 40%

Source: US10538554B2, “Peptides and uses therefor as antiviral agents” (priority 2015, dated 2020)
